Test results taken from PubChem BioAssay AID2060884 (Molecular Pharmacology Branch, DTP, NCI, 2025).

Test system: NCI-H929 complex spheroids, viability % test/control
Experiment: Anticancer human tumor NCI-H929 cell line growth inhibition [RAS];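 further: compound exposure lasted seven days before viability was read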;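 on viability, T/C: 100% = DMSO vehicle control viability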
Details: for IC50: curve of first compound; for viability, T/C: stronger effect = lower value
Outline: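 Agents were tested in combination matrices in half-log decrements from a top concentration at or near clinical Cmax (10 microM if undetermined). Targets were multi-cell spheroids of tumour lines plus HUVEC and MSC stromal cells.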

## NC1c2ccccc2OC12CCN(c1cnc3c(N4CCCc5ncccc54)n[nH]c3n1)CC2 (centres undefined) + CCn1c(-c2cccnc2C(C)OC)c2c3cc(ccc31)N1CCOC(CC(NC(=O)C(C(C)C)N(C)C(=O)C3(F)CCN(C(=O)C#CC(C)(C)N(C)C)CC3)C(=O)N3CCCC(N3)C(=O)OCC(C)(C)C2)C1
Second compound 0.000949 µM
  IC50: > 10000 nM
Second compound 0.003 µM
  IC50: > 10000 nM
Second compound 0.00949 µM
  IC50: > 10000 nM
Second compound 0.03 µM
  IC50: > 10000 nM
Second compound 0.0949 µM
  IC50: 9050 nM
Second compound 0.3 µM
  IC50: 8980 nM
Second compound 0.000949 µM, first compound 0.0316 µM
  viability, T/C: 103%
Second compound 0.000949 µM, first compound 0.1 µM
  viability, T/C: 100%
Second compound 0.000949 µM, first compound 0.316 µM
  viability, T/C: 103%
Second compound 0.000949 µM, first compound 1 µM
  viability, T/C: 98.5%
Second compound 0.000949 µM, first compound 3.16 µM
  viability, T/C: 94.5%
Second compound 0.000949 µM, first compound 10 µM
  viability, T/C: 60.7%
Second compound 0.003 µM, first compound 0.0316 µM
  viability, T/C: 103%
Second compound 0.003 µM, first compound 0.1 µM
  viability, T/C: 96.5%
Second compound 0.003 µM, first compound 0.316 µM
  viability, T/C: 102%
Second compound 0.003 µM, first compound 1 µM
  viability, T/C: 97.7%
Second compound 0.003 µM, first compound 3.16 µM
  viability, T/C: 95.7%
Second compound 0.003 µM, first compound 10 µM
  viability, T/C: 58.5%
Second compound 0.00949 µM, first compound 0.0316 µM
  viability, T/C: 101%
Second compound 0.00949 µM, first compound 0.1 µM
  viability, T/C: 99.6%
Second compound 0.00949 µM, first compound 0.316 µM
  viability, T/C: 101%
Second compound 0.00949 µM, first compound 1 µM
  viability, T/C: 96.8%
Second compound 0.00949 µM, first compound 3.16 µM
  viability, T/C: 93.2%
Second compound 0.00949 µM, first compound 10 µM
  viability, T/C: 54.1%
Second compound 0.03 µM, first compound 0.0316 µM
  viability, T/C: 97.7%
Second compound 0.03 µM, first compound 0.1 µM
  viability, T/C: 96.9%
Second compound 0.03 µM, first compound 0.316 µM
  viability, T/C: 99.8%
Second compound 0.03 µM, first compound 1 µM
  viability, T/C: 99.7%
Second compound 0.03 µM, first compound 3.16 µM
  viability, T/C: 90.9%
Second compound 0.03 µM, first compound 10 µM
  viability, T/C: 54.2%
Second compound 0.0949 µM, first compound 0.0316 µM
  viability, T/C: 99.1%
Second compound 0.0949 µM, first compound 0.1 µM
  viability, T/C: 98.2%
Second compound 0.0949 µM, first compound 0.316 µM
  viability, T/C: 93.6%
Second compound 0.0949 µM, first compound 1 µM
  viability, T/C: 91.2%
Second compound 0.0949 µM, first compound 3.16 µM
  viability, T/C: 86.5%
Second compound 0.0949 µM, first compound 10 µM
  viability, T/C: 46.3%
Second compound 0.3 µM, first compound 0.0316 µM
  viability, T/C: 95.7%
Second compound 0.3 µM, first compound 0.1 µM
  viability, T/C: 99.6%
Second compound 0.3 µM, first compound 0.316 µM
  viability, T/C: 99.5%
Second compound 0.3 µM, first compound 1 µM
  viability, T/C: 93.2%
Second compound 0.3 µM, first compound 3.16 µM
  viability, T/C: 76.8%
Second compound 0.3 µM, first compound 10 µM
  viability, T/C: 47.2%

## Nc1ccn(C2OC(CO)C(O)C2(F)F)c(=O)n1 (centres undefined) + C#Cc1c(F)ccc2cc(O)cc(-c3ncc4c(N5CC6CCC(C5)N6)nc(OCC56CCCN5CC(F)C6)nc4c3F)c12
Second compound 0.0316 µM
  IC50: 18.2 nM
Second compound 0.1 µM
  IC50: 18.5 nM
Second compound 0.316 µM
  IC50: 18.5 nM
Second compound 1 µM
  IC50: 18.1 nM
Second compound 3.16 µM
  IC50: 18.5 nM
Second compound 10 µM
  IC50: 17.8 nM
Second compound 0.0316 µM, first compound 0.00316 µM
  viability, T/C: 97.9%
Second compound 0.0316 µM, first compound 0.01 µM
  viability, T/C: 106%
Second compound 0.0316 µM, first compound 0.0316 µM
  viability, T/C: 1.73%
Second compound 0.0316 µM, first compound 0.1 µM
  viability, T/C: 1.71%
Second compound 0.0316 µM, first compound 0.316 µM
  viability, T/C: 1.77%
Second compound 0.0316 µM, first compound 1 µM
  viability, T/C: 0.97%
Second compound 0.1 µM, first compound 0.00316 µM
  viability, T/C: 99.5%
Second compound 0.1 µM, first compound 0.01 µM
  viability, T/C: 111%
Second compound 0.1 µM, first compound 0.0316 µM
  viability, T/C: 2.14%
Second compound 0.1 µM, first compound 0.1 µM
  viability, T/C: 1.9%
Second compound 0.1 µM, first compound 0.316 µM
  viability, T/C: 0.95%
Second compound 0.1 µM, first compound 1 µM
  viability, T/C: 1.51%
Second compound 0.316 µM, first compound 0.00316 µM
  viability, T/C: 102%
Second compound 0.316 µM, first compound 0.01 µM
  viability, T/C: 106%
Second compound 0.316 µM, first compound 0.0316 µM
  viability, T/C: 2.97%
Second compound 0.316 µM, first compound 0.1 µM
  viability, T/C: 2.03%
Second compound 0.316 µM, first compound 0.316 µM
  viability, T/C: 1.39%
Second compound 0.316 µM, first compound 1 µM
  viability, T/C: 1.19%
Second compound 1 µM, first compound 0.00316 µM
  viability, T/C: 97.4%
Second compound 1 µM, first compound 0.01 µM
  viability, T/C: 105%
Second compound 1 µM, first compound 0.0316 µM
  viability, T/C: 1.48%
Second compound 1 µM, first compound 0.1 µM
  viability, T/C: 1.24%
Second compound 1 µM, first compound 0.316 µM
  viability, T/C: 0.95%
Second compound 1 µM, first compound 1 µM
  viability, T/C: 0.85%
Second compound 3.16 µM, first compound 0.00316 µM
  viability, T/C: 97.4%
Second compound 3.16 µM, first compound 0.01 µM
  viability, T/C: 108%
Second compound 3.16 µM, first compound 0.0316 µM
  viability, T/C: 3.7%
Second compound 3.16 µM, first compound 0.1 µM
  viability, T/C: 1.57%
Second compound 3.16 µM, first compound 0.316 µM
  viability, T/C: 1.67%
Second compound 3.16 µM, first compound 1 µM
  viability, T/C: 1.18%
Second compound 10 µM, first compound 0.00316 µM
  viability, T/C: 102%
Second compound 10 µM, first compound 0.01 µM
  viability, T/C: 97.2%
Second compound 10 µM, first compound 0.0316 µM
  viability, T/C: 2.56%
Second compound 10 µM, first compound 0.1 µM
  viability, T/C: 1.28%
Second compound 10 µM, first compound 0.316 µM
  viability, T/C: 1.24%
Second compound 10 µM, first compound 1 µM
  viability, T/C: 0.87%
